# Test results published in article PMC6085299 (Nature Communications, 2018).
# Experiments:
# Pin1 [1] = target: Pin1 (Homo sapiens, UniProt Q13526, M130I); assay: PPIase assay (Supplementary Fig. 2e); assay type: biochemical
# Pin1 [2] = target: T1, Pin1 (Homo sapiens, UniProt Q13526); assay: biotin-ATO pulldown with immunoblot, dose-dependent, competed by ATO; assay type: binding
# T1 construct: recombinant Pin1
Compound,PPIase assay (Supplementary Fig. 2e) (Pin1 [1]),Kd (Pin1 [2]) [nM]
"O=[As]O[As]=O (centres unmarked) [ATO, Arsenic trioxide]","ATO dose-dependently inhibited the PPIase activity of Pin1 M130I, but not Pin1 M130V mutant",–
biotin-ATO,–,238
